From paper PMC9147171, “Pharmacokinetic/Pharmacodynamic Evaluation of a New Purine-2,6-Dione Derivative in Rodents with Experimental Autoimmune Diseases” (Pharmaceutics, 2022)

How the values were obtained:
[1] = target: T1, hrPDE3A (Homo sapiens, UniProt Q14432); assay: PDE-Glo catalytic activity assay, PDE3A; assay type: biochemical
T1 construct: purchased SignalChem, Richmond, Canada
Protocol: The inhibitory activity of compound 34 against hrPDE1B and hrPDE3A (SignalChem, Richmond, Canada) was assessed using the PDE-Glo™ catalytic activity assay (Promega Corporation, Madison, WI, USA). It was performed on 384-well plates according to manufacturer’s instructions with slight modifications. Solutions of both PDEs were prepared by diluting their stock solutions in the PDE-Glo™ Reaction Buffer and aliquots of 6.5 μL were added to the wells. A stock solution of the tested compound was prepared in DMSO at a concentration of 10 mM and serially diluted with the same solvent. The obtained solutions were further diluted with PDE-Glo™ Reaction Buffer (1:5, v/v) and aliquots of 1 μL were transferred to the respective wells. Then, the mixture was incubated for 10 min at 30 °C on a heated plate shaker (Grant Instruments, Cambridge, United Kingdom). The reaction was started by the addition of 2.5 μL of a 0.2 μM cAMP solution to each well and the plate was incubated for 10 min at 30 °C on a heated plate shaker. Moreover, for each series, respective control reactions were performed: no-substrate, no-enzyme negative control reactions; no-enzyme positive control reactions containing substrate; and no-inhibitor positive control reactions containing both the substrate and PDE. After incubation, the reaction was stopped by adding 2.5 μL of the PDE-Glo™ Termination Buffer. A volume of 2.5 μL of the PDE-Glo™ Detection Buffer was transferred to each well and the plate was incubated for 20 min at room temperature. Finally, an aliquot of 10 μL of the PDE-Glo Kinase® Reagent was added to the wells. The plate was incubated for 10 min at room temperature and luminescence was measured with a luminometer (BMG Labtech, Ortenberg, Germany). For each inhibitor concentration, four independent measurements were performed. The resulting data were expressed as percent of an uninhibited control and plotted against the inhibitor concentration. The IC50 values were estimated by nonlinear regression using ADAPT5 software (BMSR, Los Angeles, CA, USA).

[2] = test system: collagen-induced arthritis (CIA) in rats; assay: Collagen-induced arthritis (CIA) in rats, PK/PD arthritis progression model; assay type: in vivo, female Lewis rats
Protocol: Female Lewis rats were subcutaneously injected at the base of the tail with the emulsion prepared according to the protocol supplied by Chondrex, Inc. (Redmond, WA, USA) at days 0 and 7 of the experiment. To obtain the emulsion, porcine collagen type II (Chondrex, Inc.) (2 mg/mL) in 0.05 M acetic acid was emulsified with incomplete Freund’s adjuvant (Sigma-Aldrich, St. Louis, MO, USA) using a homogenizer with a small blade (LabGen 125, Cole-Parmer, Vernon Hills, IL, USA). On day 20, the animals that developed symptoms of arthritis, i.e., paw swelling above 150% of day 0, were randomly divided into two groups: the control group receiving vehicle alone (n = 6) and the study group treated with the investigated compound at a dose of 20 mg·kg^−1, IP once daily for 21 days (n = 6). Relative paw edema of arthritic rats was measured using a digital caliper according to the procedure described by Earp et al. up to 40 days after the first immunization and then the animals were sacrificed. In addition, the body weight of animals was monitored. After randomization on day 20, using the Mann–Whitney U test, it was verified that there is no significant difference in paw size between the groups.
A previously developed PK/PD model of arthritis progression in rats was utilized in this study (Figure 2). The model was described in detail in our previous publication. Originally, this model was used to assess and compare the effects of a PDE4-selective inhibitor rolipram and two non-selective PDE inhibitors, namely GRMS-55 and lisofylline in CIA in female Lewis rats.
Briefly, the model assumes that PDE inhibitors act by suppressing the production of a precursor of arthritis progression. This is in line with the actual mechanism of anti-inflammatory action of PDE inhibitors that exert their effects by inhibiting the transcription of pro-inflammatory mediators, which participate in the arthritis development. […] Therefore, it was feasible to compare the potency of compound 34 and other PDE inhibitors that were evaluated in our previous study. […]

T1 sequence (Q14432 whole entry): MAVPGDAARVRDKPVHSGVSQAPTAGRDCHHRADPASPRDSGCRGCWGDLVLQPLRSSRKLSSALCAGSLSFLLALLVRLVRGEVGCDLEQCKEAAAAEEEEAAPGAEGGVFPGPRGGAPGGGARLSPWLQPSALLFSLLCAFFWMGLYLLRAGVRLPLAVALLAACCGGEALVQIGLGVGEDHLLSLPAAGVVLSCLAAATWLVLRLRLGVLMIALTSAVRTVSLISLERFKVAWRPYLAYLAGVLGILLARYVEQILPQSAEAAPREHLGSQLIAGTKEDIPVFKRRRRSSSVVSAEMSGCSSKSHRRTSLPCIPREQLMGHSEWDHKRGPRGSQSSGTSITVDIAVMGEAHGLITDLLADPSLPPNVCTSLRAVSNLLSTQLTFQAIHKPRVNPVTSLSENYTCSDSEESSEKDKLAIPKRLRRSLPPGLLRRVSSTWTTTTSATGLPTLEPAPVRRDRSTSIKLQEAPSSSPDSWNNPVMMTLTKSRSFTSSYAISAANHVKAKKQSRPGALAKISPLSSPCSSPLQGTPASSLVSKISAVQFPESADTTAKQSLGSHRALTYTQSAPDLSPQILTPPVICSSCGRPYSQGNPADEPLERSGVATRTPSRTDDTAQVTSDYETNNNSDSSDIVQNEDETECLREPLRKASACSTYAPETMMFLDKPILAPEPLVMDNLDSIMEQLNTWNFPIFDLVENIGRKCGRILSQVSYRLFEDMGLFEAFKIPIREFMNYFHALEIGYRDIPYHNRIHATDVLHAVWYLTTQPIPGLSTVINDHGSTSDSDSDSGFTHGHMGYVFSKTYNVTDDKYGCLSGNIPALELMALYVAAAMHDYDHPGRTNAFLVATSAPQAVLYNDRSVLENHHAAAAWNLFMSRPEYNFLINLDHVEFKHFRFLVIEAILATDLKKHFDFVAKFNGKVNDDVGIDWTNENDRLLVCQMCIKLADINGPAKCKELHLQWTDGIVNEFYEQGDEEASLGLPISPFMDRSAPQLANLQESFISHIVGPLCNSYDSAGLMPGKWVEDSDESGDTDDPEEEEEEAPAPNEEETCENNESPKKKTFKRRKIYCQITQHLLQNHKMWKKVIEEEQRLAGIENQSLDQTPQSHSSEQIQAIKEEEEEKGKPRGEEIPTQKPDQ

IC50 ([1]; human recombinant PDE3A, CV% in brackets, read-out: IC50 (µM) Against PDE Isoform (CV%) PDE3A): 0.78 µM
times more potent than GRMS-55 in inhibiting PDE3A ([1]; ratio of IC50 values, vs GRMS-55): 17 times
inhibitory activity against PDE3A, times lower compared to milrinone ([1]; ratio of IC50 values, vs milrinone): about 4 times
IC50_Paw in suppressing paw edema, times lower than that for rolipram ([2]; PK/PD model, rolipram value from ref 28): 10 times
IC50_Paw, times lower than that for GRMS-55 ([2]; same PK/PD model, GRMS-55 value from ref 28): around 260 times
Structure (SMILES): Cn1c(=O)c2c(nc(NCCc3ccccc3)n2CCCC(=O)NN=Cc2ccc(O)c(O)c2O)n(C)c1=O [Compound 34, 4-(1,3-dimethyl-2,6-dioxo-8-(phenethylamino)-2,3,6,7-tetrahydro-1H-purin-7-yl)-N′-(2,3,4-trihydroxybenzylidene)butanehydrazide]
Relative body weight, experimental vs control group ([2]; 20 mg·kg^−1 IP once daily for 21 days): not significantly different
